Test systems include A549; DLD-1; DMS-114; DMS-273; HCT-15; HOP-18; KM-20L2; NCI-H23; NCI/ADR-RES; SK-MEL-2; SNB-19; SW-620; U-251; XF498; M19-MEL; LXFL 529.
Holding throughout (assay): NCI tumour cell line growth inhibition, 48 h

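Briefly, cells in 96-well plates were exposed to five compound concentrations for 48 h, and endpoints were estimated by linear interpolation. The concentration for 50% growth inhibition is given as GI50.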 Calls of active or inactive are those of the source. Rule as the data show it: active = GI50 up to about 1.1 µM and inactive = higher.

For the molecule `CC1NC(=O)C(C)C(c2ccccc2)N(N=O)C1c1ccccc1` (centres undefined), the GI50 with A549 is > 100 µM (inactive); in the assay with DLD-1 it was 72.1 µM (inactive); with DMS-114 it was 48.5 µM (inactive); in the assay with DMS-273, 63 µM (inactive); in the assay on HCT-15, 55.2 µM; with HOP-18 it was 96.8 µM (inactive). Besides, the GI50 is > 100 µM (inactive) in the assay on KM-20L2; > 100 µM (inactive) with NCI-H23; > 69.8 µM (inactive) with NCI/ADR-RES; > 100 µM (inactive) in the assay on SK-MEL-2; > 76.9 µM (inactive) in the assay on SNB-19; > 100 µM (inactive) in the assay with SW-620. Also, the GI50 in the assay with U-251 is > 100 µM (inactive); in the assay with XF498, 29.9 µM (inactive).

For the molecule `COc1cc2c(ccc3c4cc(OC)c(OC)cc4c[n+](C)c23)cc1O` [FAGARONINE], the GI50 was 19.9 µM (inactive) in the assay with A549; 67.5 µM (inactive) with DLD-1; 2.37 µM (inactive) in the assay with DMS-114; 5.75 µM (inactive) in the assay with DMS-273; greater than 73.3 µM with HCT-15; > 75 µM (inactive) with HOP-18. Further, the GI50 in the assay on KM-20L2 is > 75 µM (inactive); in the assay with M19-MEL, 23.9 µM (inactive); in the assay on NCI-H23, 7.76 µM (inactive); with NCI/ADR-RES, 63.2 µM (inactive); in the assay with SK-MEL-2, 41.4 µM (inactive); with SNB-19, 1.15 µM (inactive). Besides, the GI50 with SW-620 was 12.7 µM (inactive); in the assay with U-251, 0.264 µM (active); with XF498, 4.54 µM (inactive).

As for `O=C1C(Cl)N(c2ccccc2[N+](=O)[O-])C1c1c[nH]c2ccccc12` (centres undefined), the GI50 in the assay with A549, with DMS-114, in the assay with KM-20L2, in the assay on LXFL 529, in the assay with M19-MEL and in the assay with NCI-H23 was > 100 µM (inactive) in each case. Besides, the GI50 with SK-MEL-2, with SNB-19, with SW-620, with U-251 and in the assay on XF498 was > 100 µM (inactive) in each case.

In the case of `Nc1nc(CCC(=O)Nc2cccc(C(F)(F)F)c2)cc(-c2ccc3ccccc3c2)n1`, the GI50 with A549 is > 100 µM (inactive); with DLD-1, > 100 µM (inactive); in the assay with DMS-114, > 100 µM (inactive); in the assay on DMS-273 it was > 100 µM (inactive); in the assay with HCT-15, greater than 100 µM; in the assay on HOP-18 it was > 100 µM (inactive). In addition, the GI50 in the assay on KM-20L2, in the assay on LXFL 529, in the assay with M19-MEL, with NCI-H23, in the assay on SK-MEL-2 and in the assay with SNB-19 was > 100 µM (inactive) throughout. The GI50 in the assay with SW-620, with U-251 and in the assay with XF498 was > 100 µM (inactive) each time.

For the molecule `ClCc1ccc2ccc3ccc(CCl)nc3c2n1`, the GI50 with A549 is 4.76 µM (inactive); in the assay on DLD-1, 1.5 µM (inactive); in the assay on DMS-114, 1.87 µM (inactive); in the assay on DMS-273, 2.2 µM (inactive); in the assay on HCT-15 it was 1.78 µM; with HOP-18, 2.65 µM (inactive). Also, the GI50 with KM-20L2 is 4.1 µM (inactive); in the assay on M19-MEL, 1.76 µM (inactive); with NCI-H23 it was 2.9 µM (inactive); with NCI/ADR-RES, 1.71 µM (inactive); with SK-MEL-2, 1.77 µM (inactive); in the assay with SNB-19 it was 11.9 µM (inactive). Also, the GI50 in the assay on SW-620 is 2.5 µM (inactive); in the assay on U-251 it was 1.93 µM (inactive); in the assay on XF498, 1.65 µM (inactive).

In the case of `CN1C(=O)CCC1c1ccc2c(c1)oc(=O)n2C` (centres undefined), the GI50 is > 100 µM (inactive) in the assay with A549; > 100 µM (inactive) in the assay on DLD-1; > 100 µM (inactive) with DMS-114; > 100 µM (inactive) with DMS-273; greater than 100 µM in the assay on HCT-15; > 100 µM (inactive) with HOP-18. The GI50 with KM-20L2, in the assay on LXFL 529, in the assay on M19-MEL, with NCI-H23, in the assay on SK-MEL-2 and in the assay on SNB-19 was > 100 µM (inactive) in each case. Moreover, the GI50 in the assay with SW-620, with U-251 and in the assay with XF498 was > 100 µM (inactive) throughout.

For the molecule `CCN(CC)c1cccc2c1/C(=N/O)CCCC2`, the GI50 in the assay on A549 was > 100 µM (inactive); in the assay with DMS-114, 52.8 µM (inactive); in the assay on DMS-273, > 100 µM (inactive); with HCT-15 it was greater than 100 µM; in the assay on HOP-18, > 100 µM (inactive); in the assay with KM-20L2 it was > 100 µM (inactive). Also, the GI50 in the assay on LXFL 529, with M19-MEL, in the assay with NCI-H23, in the assay with SK-MEL-2, in the assay on SNB-19 and in the assay with SW-620 was > 100 µM (inactive) throughout. Further, the GI50 in the assay on U-251 and in the assay on XF498 was > 100 µM (inactive) in each case.

For `C#CC(C)(C)OCCCCOc1cc(O)c2c(=O)c3ccccc3n(C)c2c1`, the GI50 in the assay with A549 is > 100 µM (inactive); in the assay on DLD-1 it was > 100 µM (inactive); with DMS-114, 29.3 µM (inactive); with DMS-273 it was 77.8 µM (inactive); in the assay with HCT-15, greater than 100 µM; in the assay with HOP-18 it was > 100 µM (inactive). The GI50 was 31.3 µM (inactive) in the assay on KM-20L2; > 100 µM (inactive) in the assay with LXFL 529; > 100 µM (inactive) with M19-MEL; > 100 µM (inactive) in the assay with NCI-H23; > 100 µM (inactive) in the assay with SK-MEL-2; > 100 µM (inactive) in the assay on SNB-19. Further, the GI50 in the assay with SW-620, with U-251 and with XF498 was > 100 µM (inactive) in each case.

Regarding `CC(=O)NNc1nc(C)c(C(=O)NNC(=O)C(=O)Nc2ccc([N+](=O)[O-])cc2C#N)s1`, the GI50 is > 100 µM (inactive) with A549; > 100 µM (inactive) in the assay on DMS-114; > 100 µM (inactive) in the assay on DMS-273; greater than 100 µM in the assay on HCT-15; > 100 µM (inactive) with KM-20L2; 44.3 µM (inactive) in the assay on LXFL 529. Further, the GI50 in the assay with M19-MEL was > 100 µM (inactive); in the assay on NCI-H23, 96.4 µM (inactive); in the assay on SK-MEL-2, > 100 µM (inactive); in the assay with SNB-19 it was > 100 µM (inactive); with SW-620, 55.1 µM (inactive); in the assay with U-251 it was 52.7 µM (inactive). For the same molecule, the GI50 with XF498 was > 100 µM (inactive).

As for `O=C1C=CC(=O)c2c(Cl)ccc(O)c21`, the GI50 with A549 is > 81.8 µM (inactive); in the assay with DLD-1, 13.9 µM (inactive); with DMS-114 it was 16.8 µM (inactive); with DMS-273, 16.2 µM (inactive); with HCT-15, 17.8 µM; in the assay with HOP-18 it was 19.1 µM (inactive). In addition, the GI50 in the assay with KM-20L2 was 13.8 µM (inactive); in the assay on M19-MEL it was 16.3 µM (inactive); in the assay on NCI-H23, 12.4 µM (inactive); with NCI/ADR-RES, 18.7 µM (inactive); in the assay on SK-MEL-2 it was 37.8 µM (inactive); in the assay with SNB-19, > 100 µM (inactive). In addition, the GI50 is 11.6 µM (inactive) in the assay with SW-620, > 57 µM (inactive) with U-251 and 17.5 µM (inactive) in the assay on XF498.

Consider `O=c1nc(NC(c2ccccc2)(c2ccccc2)c2ccccc2)ccn1CCCl`, for which the GI50 in the assay with A549 is 30 µM (inactive); in the assay on DLD-1, 35.3 µM (inactive); with DMS-114, 14.5 µM (inactive); in the assay with HCT-15, 35.4 µM; with HOP-18, 25.5 µM (inactive); with KM-20L2, 16.4 µM (inactive). In addition, the GI50 in the assay on LXFL 529 is 13.5 µM (inactive); in the assay with M19-MEL, 18.8 µM (inactive); in the assay on NCI-H23, 23.2 µM (inactive); with SK-MEL-2, 15.8 µM (inactive); in the assay on SNB-19, 15.1 µM (inactive); in the assay on SW-620, 24.1 µM (inactive). Besides, the GI50 was 15.3 µM (inactive) in the assay on U-251 and 14.1 µM (inactive) in the assay with XF498.

Take `O=[N+]([O-])c1ccc(N2N=C(c3ccc(NCc4nc5ccccc5[nH]4)cc3)CC2c2ccco2)cc1` (centres undefined): the GI50 in the assay with A549 was 34.8 µM (inactive); in the assay with DLD-1, 29.4 µM (inactive); with DMS-114, 18.1 µM (inactive); with DMS-273 it was 21.2 µM (inactive); in the assay on HCT-15, 21.3 µM; in the assay on HOP-18, 50.5 µM (inactive). Further, the GI50 is 11.1 µM (inactive) with LXFL 529; 29.3 µM (inactive) in the assay on M19-MEL; 19.9 µM (inactive) with NCI-H23; > 10 µM (inactive) in the assay on SK-MEL-2; 23.4 µM (inactive) in the assay on SNB-19; 34.7 µM (inactive) in the assay with SW-620. Further, the GI50 in the assay with U-251 is 29.8 µM (inactive).

As for `Cc1cc(C(=O)NCCN(C)C)c2nc3ccccc3cc2c1`, the GI50 is 0.867 µM (active) in the assay on A549; 1.96 µM (inactive) in the assay with DLD-1; 1.04 µM (active) in the assay on DMS-114; 2.31 µM (inactive) in the assay with DMS-273; 1.65 µM in the assay with HCT-15; 1.74 µM (inactive) with HOP-18. Also, the GI50 in the assay with KM-20L2 is 0.729 µM (active); in the assay with M19-MEL, 1.85 µM (inactive); in the assay on NCI-H23, 2.3 µM (inactive); in the assay with NCI/ADR-RES it was 1.1 µM (active); in the assay on SK-MEL-2, 2.69 µM (inactive); with SNB-19, 2.01 µM (inactive). In addition, the GI50 was 0.889 µM (active) in the assay with SW-620, 2.69 µM (inactive) in the assay on U-251 and 1.42 µM (inactive) in the assay with XF498.

Turning to `C=C1C(=O)OC2CC1CCC1(C)OC1CCC(C)=CCCC2(C)O` (centres undefined), the GI50 in the assay on A549 is 8.36 µM (inactive); in the assay with DLD-1, 1.81 µM (inactive); in the assay on DMS-114, 2.74 µM (inactive); with DMS-273 it was 3.1 µM (inactive); in the assay on HCT-15 it was 1.85 µM; in the assay on HOP-18, 1.47 µM (inactive). Also, the GI50 was 2.82 µM (inactive) in the assay with KM-20L2; 4.2 µM (inactive) in the assay with M19-MEL; 1.79 µM (inactive) in the assay on NCI-H23; 1.8 µM (inactive) in the assay on NCI/ADR-RES; 6.12 µM (inactive) in the assay with SK-MEL-2; 14.1 µM (inactive) with SNB-19. The GI50 was 1.12 µM (inactive) in the assay with SW-620, 11.8 µM (inactive) in the assay with U-251 and 3.73 µM (inactive) in the assay on XF498.

The values are drawn from ChEMBL document CHEMBL1201862, “PubChem BioAssay data set” (2004).
